Assay results reported in patent US20130053357A1, “SKIN IRRITATION SUPPRESSANT AND TRANSDERMAL PREPARATION” (HISAMITSU PHARMACEUTICAL CO., INC., priority 2010, published 2013).
Structures can show the parent of a compound that is named as a salt. Where two headings read alike, the source gives them in different places.

Tests used:
[1] = test system: human three-dimensional culture epidermal model (LabCyte EPI-MODEL); test: Suppression by cholesterol of skin irritation mediator production induced by drugs in a human epidermal cell (Experiment 2); type: cell-based
Experimental: (§1) A human three-dimensional epidermal culture model obtained by multilayer-culturing a human normal epidermal cell (LabCyte EPI-MODEL, manufactured by Japan Tissue Engineering Co., Ltd.) was used. LabCyte is a cultured skin cultured in a transwell. For the experiment, LabCyte was used with the transwell.
(§2) The experiment was conducted as below. First, LabCyte was put into a 24-well assay plate. Then, 1 ml of assay medium (Japan Tissue Engineering Co., Ltd.) was added so that it was brought into contact with a bottom surface of the cultured skin in each well of the 24-well assay plate, and was pre-cultured in an incubator with 5% of carbon dioxide concentration at 37° C. for 1 hour.
(§3) The test solutions of each group were added to the cells, the culture solutions incubated for 48 hours were collected, and a production amount of each skin irritation mediator was measured. The skin irritation mediator was measured by using a commercially available ELISA kit (manufactured by R&D Systems, Inc.). A relative production amount of the skin irritation mediator in each test substance was calculated as below, when the production amount of the skin irritation mediator in the PMA Only Group was set to 100.
Cholesterol was used as a test substance. The drugs shown in Table 2 were used as the cutaneous irritants.
Tests were conducted by the following group composition. • Drug Only Group: A group with addition of only the drug dispersed in a vehicle, as a test solution. Concentrations of the drugs are shown in Table 2. • Drug Plus Cholesterol Group: A group with addition of the drug and 1% by mass of cholesterol which were dispersed in a vehicle, as a test solution.
The experiment was conducted while other conditions were set in the same manner as in Experiment 1.

[2] = test system: human three-dimensional culture epidermal model (LabCyte EPI-MODEL); test: Production of skin irritation mediators induced by PMA in human three-dimensional epidermal culture model (Experiment 1); type: cell-based; conditions: for activity at 1 %: Homo sapiens
Excerpt: Changes in production amounts of skin irritation mediators by test substances were examined when cutaneous irritants were caused to act on a human three-dimensional culture epidermal model.
as §1
As test substances, there were used cholesterol (manufactured by Wako Pure Chemical Industries, Ltd.), β-sitosterol (manufactured by TAMA BIOCHEMICAL CO., LTD.), α-spinasterol (manufactured by ChromaDex, Inc.), ergosterol (manufactured by Wako Pure Chemical Industries, Ltd.), campesterol (manufactured by TAMA BIOCHEMICAL CO., LTD.), glycyrrhizin (manufactured by Wako Pure Chemical Industries, Ltd.), glycyrrhetinic acid (manufactured by Wako Pure Chemical Industries, Ltd.), ginsenoside (manufactured by Wako Pure Chemical Industries, Ltd.), squalene (manufactured by Wako Pure Chemical Industries, Ltd.), squalane (manufactured by Tokyo Chemical Industry Co., Ltd.) and lanosterol (manufactured by ChromaDex, Inc.), which are candidates of a skin irritation suppressant.
As skin irritants, Phorbol 12-Myristate 13-Acetate (PMA, manufactured by Wako Pure Chemical Industries, Ltd.) was used. In addition, as vehicle, olive oil (manufactured by Wako Pure Chemical Industries, Ltd.) was used.
Experiments were conducted by the following group composition. • PMA Only Group: A group with addition of only 0.00001 mol of PMA dispersed in a vehicle, as a test solution. • Test Substance Group: A group with addition of 0.00001 mol of PMA and the test substance which were dispersed in a vehicle, as a test solution.
as §2
Next, a cell survival rate was measured by the MTT method after causing the test solutions of each group to act. Specifically, 50 μL of the test solution of each group was added to the surface of the LabCyte after preculture, was cultured in the incubator with 5% of carbon dioxide concentration at 37° C. for 48 hours, then was transferred to the assay medium comprising 0.5 mg/ml of MTT reagent, and was cultured in the incubator with 5% of carbon oxide level at 37° C. for 3 hours. Then, LabCyte was immersed in 0.3 ml of an isopropanol solution, and the produced blue-purple formazan was extracted for 2 hours. After extraction, an absorbance at 570 nm was measured by a 96 microplate reader. The cell survival rate was calculated as below.
Cell survival rate (%)=(absorbance of Test Substance Group)/(absorbance of PMA Only Group)×100
Subsequently, a production amount of the skin irritation mediator at a test substance concentration with 80% or more of cell survival rate was measured. As skin irritation mediators, PGE2, IL-1α, IL-6, IL-8 were measured.
as §3
Relative production amount=(production amount of the mediator in Test Substance Group)/(production amount of the mediator in PMA Only Group)×100

[3] = test system: croton oil-induced mouse ear swelling; test: Suppression of croton oil-induced mouse ear swelling reaction (Experiment 3); type: in vivo
Excerpt: <Suppression of Croton Oil-Induced Mouse Ear Swelling Reaction by the Test Substances>
Suppression of mouse ear swelling was examined through the use of croton oil (Wako Pure Chemical Industries, Ltd.) as a swelling inducer. A 7-week-old ddY female mouse (SPF) was subjected to an experiment. As test substances, cholesterol, glycyrrhizin, glycyrrhetinic acid, squalene, ergosterol, squalane and lanosterol were used. As a vehicle, acetone (Wako Pure Chemical Industries, Ltd.) was used.
Experiments were conducted by the following group composition. • Positive Control Group: A group which received only the vehicle as a primary test solution, and one hour after, received a 2% croton oil solution as a secondary test solution. • Test Substance Group: A group in which only the vehicle was administered as a primary test solution, and one hour after, a 2% croton oil solution including 1% by mass of test substance was administered as a secondary test solution.
An inhibition ratio of ear swelling was calculated as below. In this test, a […] inflammation model is used to examine immediate swelling reactions. In accordance with the group composition, 25 μL of the primary test solution was uniformly coated on back sides of both ears in an etherize mouse, and one hour after, 25 μL of the secondary test solution was uniformly coated in accordance with the group composition. Prior to coating of the secondary test solution, a thickness of auricle was measured by DIAL […] GAUGE (OZAKI MFG CO., LTD.). Furthermore, the secondary test solution was administered, and 6 hours after, the auricular thickness was measured in the same way as mentioned above, and an increased amount of the auricular thickness was set by deducting the thickness measured prior to administration of the secondary test solution. The inhibition ratio of ear swelling was calculated as below.
Inhibition ratio of ear swelling (%)=(increased amount of auricular thickness in Test Substance Group−increased amount of auricular thickness in Negative Control Group)/(increased amount of auricular thickness in Positive Control Group−increased amount of auricular thickness in Negative Control Group)×100

[4] = Drug Plus Cholesterol Group: drug 1 × 10^−3 M plus 1% by mass of cholesterol
[5] = Drug Plus Cholesterol Group: drug 2 × 10^−3 M plus 1% by mass of cholesterol

CN(C)CCC[C@@]1(c2ccc(F)cc2)OCc2cc(C#N)ccc21.O=C(O)C(=O)O [(S)-citalopram Oxalate]
Relative Production Amount of Skin Irritation Mediator when Production Amount in Drug Only Group is Set to 100: IL-1α [1, 4]: 61 | Relative Production Amount of Skin Irritation Mediator when Production Amount in Drug Only Group is Set to 100: IL-6 [1, 4]: 85 | Relative Production Amount of Skin Irritation Mediator when Production Amount in Drug Only Group is Set to 100: IL-8 [1, 4]: 64 | Relative Production Amount of Skin Irritation Mediator when Production Amount in Drug Only Group is Set to 100: PGE2 [1, 4]: 46

CC(C)NCC(O)COc1ccc(COCCOC(C)C)cc1 (stereo not drawn) [Bisoprolol Fumarate]
Relative Production Amount of Skin Irritation Mediator when Production Amount in Drug Only Group is Set to 100: IL-1α [1, 4]: 26 | Relative Production Amount of Skin Irritation Mediator when Production Amount in Drug Only Group is Set to 100: IL-6 [1, 4]: 72 | Relative Production Amount of Skin Irritation Mediator when Production Amount in Drug Only Group is Set to 100: IL-8 [1, 4]: 73 | Relative Production Amount of Skin Irritation Mediator when Production Amount in Drug Only Group is Set to 100: PGE2 [1, 4]: 87

CC(C)[C@H](C)CC[C@@H](C)[C@H]1CC[C@H]2[C@@H]3CC=C4C[C@@H](O)CC[C@]4(C)[C@H]3CC[C@]12C [Campesterol, campesterol]
Effect on skin irritation mediator production by PMA (in words) [2]: exhibited effects of suppressing the skin irritation mediator production by PMA | activity at 1 % ([2]; 48 h, read-out: Relative Production Amount of Skin Irritation Mediator when Production Amount in PMA Only Group is Set to 100: IL-1α): 53% | activity at 1 % ([2]; 48 h, read-out: Relative Production Amount of Skin Irritation Mediator when Production Amount in PMA Only Group is Set to 100: IL-6): 100% | activity at 1 % ([2]; 48 h, read-out: Relative Production Amount of Skin Irritation Mediator when Production Amount in PMA Only Group is Set to 100: IL-8): 106% | activity at 1 % ([2]; 48 h, read-out: Relative Production Amount of Skin Irritation Mediator when Production Amount in PMA Only Group is Set to 100: PGE2): 38%

CC(C)[C@@H](C)/C=C/[C@@H](C)[C@H]1CC[C@H]2C3=CC=C4C[C@@H](O)CC[C@]4(C)[C@H]3CC[C@]12C [Ergosterol, ergosterol]
Inhibition Ratio Of Ear Swelling ([3]; ddY female mouse, 1% by mass of test substance in 2% croton oil solution, 25 μL on ears, auricular thickness 6 hours after): 38.1% | Effect on croton oil-induced mouse ear swelling reaction (in words) ([3]; summary of Table 3): suppress croton oil-induced mouse ear swelling reaction | activity at 1 % ([2]; test substance 1 mass % with PMA in olive oil, 48 hours, read-out: Relative Production Amount of Skin Irritation Mediator when Production Amount in PMA Only Group is Set to 100: IL-1α): 71% | activity at 1 % ([2]; test substance 1 mass % with PMA in olive oil, 48 hours, read-out: Relative Production Amount of Skin Irritation Mediator when Production Amount in PMA Only Group is Set to 100: IL-6): 81% | activity at 1 % ([2]; test substance 1 mass % with PMA in olive oil, 48 hours, read-out: Relative Production Amount of Skin Irritation Mediator when Production Amount in PMA Only Group is Set to 100: IL-8): 111% | activity at 1 % ([2]; test substance 1 mass % with PMA in olive oil, 48 hours, read-out: Relative Production Amount of Skin Irritation Mediator when Production Amount in PMA Only Group is Set to 100: PGE2): 20% | Effect on skin irritation mediator production by PMA (in words) ([2]; summary of Table 1): exhibited effects of suppressing the skin irritation mediator production by PMA

CN1CCCC1c1cccnc1 (stereo not drawn) [Nicotine]
Relative Production Amount of Skin Irritation Mediator when Production Amount in Drug Only Group is Set to 100: IL-1α [1, 5]: 29 | Relative Production Amount of Skin Irritation Mediator when Production Amount in Drug Only Group is Set to 100: IL-6 [1, 5]: 93 | Relative Production Amount of Skin Irritation Mediator when Production Amount in Drug Only Group is Set to 100: IL-8 [1, 5]: 67 | Relative Production Amount of Skin Irritation Mediator when Production Amount in Drug Only Group is Set to 100: PGE2 [1, 5]: 58
